Test results reported in patent publication US11395847B2, “Acylated GLP-1/GLP-2 dual agonists” (Zealand Pharma A/S, priority 2016, dated 2022).
Like-named read-outs stand apart in the source and are kept apart here. Where a SMILES comes first, the peptide text is derived from it.

Columns and labels:
[1] = test system: Normal chow-fed C57BL/6J male mice; test: Effect on fasting glucose and intestinal weight in normal mice; format: in vivo; details: for Small intestinal wet weight: 100 nmol/kg s.c. once daily for 4 days, sacrificed 24 hours after final dosing; for Fasting blood glucose: 100 nmol/kg s.c., day 0 after a single injection, fasted mice
Experimental: Normal chow-fed C57BL/6J male mice were used. The mice were kept in standard housing conditions, light-, temperature-, and humidity-controlled room (12:12 h light-dark cycle, with lights on at 06.00-18.00 h; 20-22° C.; 50-80% relative humidity). Each dosing group consisted of 6 animals. Mice were dosed once daily with 100 nmol/kg with the test compounds or vehicle for 4 days via subcutaneous administration.
On day 0 mice were fasted and blood glucose levels measured after a single s.c. injection with peptides. Animals were sacrificed 24 hours after final dosing on day 3, and small intestinal wet weights were measured.

[2] = Chemical stability (RP-HPLC normalized purity after incubation at 40° C.); format: physicochemical; details: 14-day incubation, 0.2 mg/ml, normalized purity (area-%); for pH 6 normalized stability: pH 6, 40° C.; for pH 7 normalized stability: pH 7, 40° C.
How it was run: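 Peptide at 0.2 mg/ml final in water adjusted to pH 6, 7, 7.5 or 9, incubated at 40° C for 14 days. Purity measured as main-peak area-% by C18 RP-HPLC (acetonitrile/TFA/water gradient, UV 220 nm) and normalized to T=0 set at 100 for each pH.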

[3] = Solubility assessment (turbidity absorbance at 325 nm); format: physicochemical
How it was run: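 Peptide stock at 2 mg/ml in water at pH 2.5 diluted 1:1 into 100 mM acetate (pH 4.0, 5.0), histidine (pH 6.0, 7.0) or phosphate (pH 6.0, 7.0, 7.5) buffer. Absorbance at 280 and 325 nm read at ambient temperature (typically 25 °C), single samples (n=1).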

solubility ([3]; 100 mM acetate buffer pH 4.0, ambient temperature, read-out: Solubility Acetate buffer pH 4)	solubility ([3]; 100 mM acetate buffer pH 5.0, ambient temperature, read-out: Solubility Acetate buffer pH 5)	solubility ([3]; 100 mM histidine buffer pH 6.0, ambient temperature, read-out: Solubility Histidine buffer pH 6)	solubility ([3]; 100 mM histidine buffer pH 7.0, ambient temperature, read-out: Solubility Histidine buffer pH 7)	solubility ([3]; 100 mM phosphate buffer pH 6.0, ambient temperature, read-out: Solubility Phosphate buffer pH 6)	solubility ([3]; 100 mM phosphate buffer pH 7.0, ambient temperature, read-out: Solubility Phosphate buffer pH 7)	solubility ([3]; 100 mM phosphate buffer pH 7.5, ambient temperature, read-out: Solubility Phosphate buffer pH 7.5)	Compound	Small intestinal wet weight [1]	Fasting blood glucose [1]	pH 6 normalized stability [2]	pH 7 normalized stability [2]
							CC[C@H](C)[C@H](NC(=O)[C@H](Cc1ccccc1)NC(=O)[C@H](CC(=O)O)NC(=O)[C@H](CCCNC(=N)N)NC(=O)[C@H](C)NC(=O)[C@H](C)NC(=O)[C@H](CCC(N)=O)NC(=O)[C@H](CCCCNC(=O)COCCOCCNC(=O)[C@H](CCCCN)NC(=O)[C@H](CCC(=O)O)NC(=O)[C@H](CCCCN)NC(=O)CC[C@H](NC(=O)CCCCCCCCCCCCCCCCCCC(=O)O)C(=O)O)NC(=O)[C@H](CC(=O)O)NC(=O)[C@H](CC(C)C)NC(=O)[C@@H](NC(=O)[C@@H](NC(=O)[C@H](C)NC(=O)[C@H](CC(C)C)NC(=O)[C@H](CCC(=O)O)NC(=O)[C@H](CO)NC(=O)[C@H](CO)NC(=O)[C@H](Cc1ccccc1)NC(=O)[C@@H](NC(=O)CNC(=O)[C@H](CCC(=O)O)NC(=O)C(C)(C)NC(=O)[C@@H](N)Cc1c[nH]cn1)[C@@H](C)O)[C@@H](C)O)[C@@H](C)CC)C(=O)N[C@@H](C)C(=O)N[C@@H](Cc1c[nH]c2ccccc12)C(=O)N[C@@H](CC(C)C)C(=O)N[C@H](C(=O)N[C@@H](CCC(N)=O)C(=O)N[C@@H](Cc1c[nH]cn1)C(=O)N[C@@H](CCCCN)C(=O)N[C@H](C(=O)N[C@H](C(=O)N[C@@H](CC(=O)O)C(=O)O)[C@@H](C)O)[C@@H](C)CC)[C@@H](C)CC [Compound 48] (HELM PEPTIDE1{H.[Aib].E.G.T.F.S.S.E.L.A.T.I.L.D.K.Q.A.A.R.D.F.I.A.W.L.I.Q.H.K.I.T.D}|PEPTIDE2{[O=C(O)CCCCCCCCCCCCCCCCCCC(=O)[*:2]].[gGlu].K.E.K.[O=C(COCCOCCN[*:1])[*:2]]}$PEPTIDE1,PEPTIDE2,16:R3-6:R2$$$V2.0)	1.41 g	5.08 mM		
							CC[C@H](C)[C@H](NC(=O)[C@H](Cc1ccccc1)NC(=O)[C@H](CC(=O)O)NC(=O)[C@H](CCCNC(=N)N)NC(=O)[C@H](C)NC(=O)[C@H](C)NC(=O)[C@H](CCCCN)NC(=O)[C@H](CCCCNC(=O)CC[C@H](NC(=O)CCCCCCCCCCCCCCCCC(=O)O)C(=O)O)NC(=O)[C@H](CC(=O)O)NC(=O)[C@H](CC(C)C)NC(=O)[C@@H](NC(=O)[C@@H](NC(=O)[C@H](C)NC(=O)[C@H](CC(C)C)NC(=O)[C@H](CCC(=O)O)NC(=O)[C@H](CO)NC(=O)[C@@H](NC(=O)[C@H](Cc1ccccc1)NC(=O)[C@H](CO)NC(=O)CNC(=O)[C@H](CCC(=O)O)NC(=O)C(C)(C)NC(=O)[C@@H](N)Cc1c[nH]cn1)[C@@H](C)O)[C@@H](C)O)[C@@H](C)CC)C(=O)N[C@@H](C)C(=O)N[C@@H](Cc1c[nH]c2ccccc12)C(=O)N[C@@H](CC(C)C)C(=O)N[C@H](C(=O)N[C@@H](CCC(=O)O)C(=O)N[C@@H](Cc1c[nH]cn1)C(=O)N[C@@H](CCCCN)C(=O)N[C@H](C(=O)N[C@H](C(=O)N[C@@H](CC(=O)O)C(=O)O)[C@@H](C)O)[C@@H](C)CC)[C@@H](C)CC [Compound 5] (HELM PEPTIDE1{H.[Aib].E.G.S.F.T.S.E.L.A.T.I.L.D.K.K.A.A.R.D.F.I.A.W.L.I.E.H.K.I.T.D}|PEPTIDE2{[O=C(O)CCCCCCCCCCCCCCCCC(=O)[*:2]].[gGlu]}$PEPTIDE1,PEPTIDE2,16:R3-2:R2$$$V2.0)	1.35 g	4.60 mM	A (>90% normalised stability)	A (>90% normalised stability)
< 1 mg/mL	< 1 mg/mL	≥ 1 mg/mL	≥ 1 mg/mL	≥ 1 mg/mL	≥ 1 mg/mL	≥ 1 mg/mL	CC[C@H](C)[C@H](NC(=O)[C@H](Cc1ccccc1)NC(=O)[C@H](CC(=O)O)NC(=O)[C@H](CCCNC(=N)N)NC(=O)[C@H](C)NC(=O)[C@H](C)NC(=O)[C@H](CCC(N)=O)NC(=O)[C@H](CCCCNC(=O)CC[C@H](NC(=O)CCCCCCCCCCCCCCCCC(=O)O)C(=O)O)NC(=O)[C@H](CC(=O)O)NC(=O)[C@H](CC(C)C)NC(=O)[C@@H](NC(=O)[C@@H](NC(=O)[C@H](C)NC(=O)[C@H](CC(C)C)NC(=O)[C@H](CCC(=O)O)NC(=O)[C@H](CO)NC(=O)[C@@H](NC(=O)[C@H](Cc1ccccc1)NC(=O)[C@H](CO)NC(=O)CNC(=O)[C@H](CCC(=O)O)NC(=O)C(C)(C)NC(=O)[C@@H](N)Cc1c[nH]cn1)[C@@H](C)O)[C@@H](C)O)[C@@H](C)CC)C(=O)N[C@@H](C)C(=O)N[C@@H](Cc1c[nH]c2ccccc12)C(=O)N[C@@H](CC(C)C)C(=O)N[C@H](C(=O)N[C@@H](CCC(N)=O)C(=O)N[C@@H](Cc1c[nH]cn1)C(=O)N[C@@H](CCCCN)C(=O)N[C@H](C(=O)N[C@H](C(=O)N[C@@H](CC(=O)O)C(=O)O)[C@@H](C)O)[C@@H](C)CC)[C@@H](C)CC [Compound 18] (HELM PEPTIDE1{H.[Aib].E.G.S.F.T.S.E.L.A.T.I.L.D.K.Q.A.A.R.D.F.I.A.W.L.I.Q.H.K.I.T.D}|PEPTIDE2{[O=C(O)CCCCCCCCCCCCCCCCC(=O)[*:2]].[gGlu]}$PEPTIDE1,PEPTIDE2,16:R3-2:R2$$$V2.0)	1.37 g	5.26 mM	A (>90% normalised stability)	A (>90% normalised stability)
							CC[C@H](C)[C@H](NC(=O)[C@H](Cc1ccccc1)NC(=O)[C@H](CC(=O)O)NC(=O)[C@H](CCCNC(=N)N)NC(=O)[C@H](C)NC(=O)[C@H](C)NC(=O)[C@H](CCCCNC(=O)CC[C@H](NC(=O)CCCCCCCCCCCCCCCCC(=O)O)C(=O)O)NC(=O)CNC(=O)[C@H](CC(=O)O)NC(=O)[C@H](CC(C)C)NC(=O)[C@@H](NC(=O)[C@@H](NC(=O)[C@H](C)NC(=O)[C@H](CC(C)C)NC(=O)[C@H](CCC(=O)O)NC(=O)[C@H](CO)NC(=O)[C@@H](NC(=O)[C@H](Cc1ccccc1)NC(=O)[C@H](CO)NC(=O)CNC(=O)[C@H](CCC(=O)O)NC(=O)C(C)(C)NC(=O)[C@@H](N)Cc1c[nH]cn1)[C@@H](C)O)[C@@H](C)O)[C@@H](C)CC)C(=O)N[C@@H](C)C(=O)N[C@@H](Cc1c[nH]c2ccccc12)C(=O)N[C@@H](CC(C)C)C(=O)N[C@H](C(=O)N[C@@H](CCC(=O)O)C(=O)N[C@@H](Cc1c[nH]cn1)C(=O)N[C@@H](CCCCN)C(=O)N[C@H](C(=O)N[C@H](C(=O)N[C@@H](CC(=O)O)C(=O)O)[C@@H](C)O)[C@@H](C)CC)[C@@H](C)CC [Compound 8] (HELM PEPTIDE1{H.[Aib].E.G.S.F.T.S.E.L.A.T.I.L.D.G.K.A.A.R.D.F.I.A.W.L.I.E.H.K.I.T.D}|PEPTIDE2{[O=C(O)CCCCCCCCCCCCCCCCC(=O)[*:2]].[gGlu]}$PEPTIDE1,PEPTIDE2,17:R3-2:R2$$$V2.0)	1.27 g	5.28 mM		
